From patent US20100035866A1, “NOVEL SUBSTITUTED-1, 1-DIOXO-BENZO[1,2,4]THIADIAZIN-3ONES, PREPARATION METHOD THEREOF, AND PHARMACEUTICAL COMPOSITION CONTAINING THE SAME” (KOREA RESEARCH INSTITUTE OF CHEMICAL TECHNOLOGY, priority 2006, published 2010) come the findings set out here.

In general, IC50 refers to the point on the concentration scale where inhibition reaches its midpoint. In general, melting point refers to the temperature, or range, at which the solid turns liquid.

Series [1] concerns the target T1, 5-HT1a (Homo sapiens, UniProt P08908).
T1 construct: purchased Euroscreen/BioSignal Packard Inc
T1 sequence (P08908 1-422): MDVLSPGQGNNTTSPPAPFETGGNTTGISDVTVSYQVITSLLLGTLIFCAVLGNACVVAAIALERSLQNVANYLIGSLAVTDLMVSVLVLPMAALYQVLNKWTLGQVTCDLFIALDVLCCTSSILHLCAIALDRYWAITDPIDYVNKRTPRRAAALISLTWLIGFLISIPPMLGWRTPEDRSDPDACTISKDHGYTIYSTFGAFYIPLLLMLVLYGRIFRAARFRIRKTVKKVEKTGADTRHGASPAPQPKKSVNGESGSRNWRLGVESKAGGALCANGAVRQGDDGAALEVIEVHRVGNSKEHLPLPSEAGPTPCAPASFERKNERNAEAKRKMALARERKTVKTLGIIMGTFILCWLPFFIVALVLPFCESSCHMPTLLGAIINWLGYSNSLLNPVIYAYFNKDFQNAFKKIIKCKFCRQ
The series is described as follows: Radioligand binding, 5-HT receptor family: 5-HT1a ([3H]8-OH-DPAT). To be noted: CHO-K1 human recombinant receptor, [3H]8-OH-DPAT 0.5 nM; read-out: Binding affinity, IC50 (nM), 5-HT1a.

Series [2] addresses T2, 5-HT2a (Homo sapiens, UniProt P28223).
T2 construct: purchased Euroscreen/BioSignal Packard Inc
As to the kind of experiment: Radioligand binding, 5-HT receptor family: 5-HT2a ([3H]Ketanserin). The note with it: CHO-K1 human recombinant receptor, [3H]Ketanserin 1 nM; read-out: Binding affinity, IC50 (nM), 5-HT2a.

The target of series [3] is T3, 5-HT2c (Homo sapiens, UniProt P28335).
T3 construct: purchased Euroscreen/BioSignal Packard Inc
T3 sequence (P28335 33-458): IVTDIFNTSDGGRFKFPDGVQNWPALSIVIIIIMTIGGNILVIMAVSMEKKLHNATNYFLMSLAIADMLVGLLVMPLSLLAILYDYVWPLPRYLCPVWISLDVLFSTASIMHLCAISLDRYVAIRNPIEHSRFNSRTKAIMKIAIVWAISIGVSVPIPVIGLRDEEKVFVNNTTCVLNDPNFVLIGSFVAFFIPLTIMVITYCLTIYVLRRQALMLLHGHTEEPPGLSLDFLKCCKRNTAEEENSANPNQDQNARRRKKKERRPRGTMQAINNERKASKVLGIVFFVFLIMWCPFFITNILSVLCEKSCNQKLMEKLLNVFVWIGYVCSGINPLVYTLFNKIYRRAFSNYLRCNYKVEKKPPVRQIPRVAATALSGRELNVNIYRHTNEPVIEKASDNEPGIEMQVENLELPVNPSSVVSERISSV
The series is described as follows: Radioligand binding, 5-HT receptor family: 5-HT2c ([3H]Mesulergine). To be noted: CHO-K1 human recombinant receptor, [3H]Mesulergine 1 nM; read-out: Binding affinity, IC50 (nM), 5-HT2c.

In series [4] the target is T4, 5-HT7 (Homo sapiens, UniProt P34969).
T4 construct: purchased Euroscreen/BioSignal Packard Inc
As to the kind of experiment: Radioligand binding, 5-HT receptor family: 5-HT7 ([3H]LSD). To be noted: CHO-K1 human recombinant receptor, [3H]LSD 3 nM; read-out: Binding affinity, IC50 (nM), 5-HT7. As for the experimental part: Radioligand bindings were performed according to the test method provided by the supplier of receptor membrane (Euroscreen/BioSignal Packard Inc.). The detailed assay conditions and the results were shown in the following Table 3 and Table 4, respectively.

Series [5] addresses D1 (Homo sapiens, UniProt P21728). As to the kind of experiment: Dopamine receptor family binding: D1. To be noted: read-out: Binding affinity, IC50 (nM), D1.
Series [6] concerns the target T5, hD2L receptor (Homo sapiens, UniProt P14416).
T5 construct: purchased BioSignal Packard Inc., Montreal, Canada
As to the kind of experiment: Dopamine receptor family binding: D2 ([3H]spiperone). To be noted: [3H]spiperone 1 nM; read-out: Binding affinity, IC50 (nM), D2. The procedure:
(§1) 2-2: Binding Assays of Dopamine Receptor Family
(§2) The radioligands used were [^3H]spiperone (for hD2L and hD3 receptors, 1 nM) and [^3H] YM-09151-2 (for hD4.2 receptor, 0.06 nM). Radioligand bindings were performed by the protocols provided by the supplier of receptor membranes (BioSignal Packard Inc., Montreal, Canada). Briefly, the buffer used in D2 or D3 receptor binding assay was 50 mM Tris-HCl (pH 7.4), 10 mM MgCl2, 1 mM EDTA, or 50 mM Tris-HCl (pH 7.4), 5 mM MgCl2 5 mM EDTA, 5 mM KCl, 1.5 mM CaCl2, 120 mM NaCl, respectively. In [^3H] YM-09151-2 receptor binding assays, the buffer containing 50 mM Tris-HCl (pH 7.4), 5 mM MgCl2, 5 mM EDTA, 5 mM KCl and 1.5 mM CaCl2 was used. […] Competition binding studies were carried out with 7-8 concentrations of the test compound run in duplicate tubes, and isotherms from three assays were calculated by computerized nonlinear regression analysis (GraphPad Prism Program, San Diego, […]) to yield median inhibitory concentration (IC50) values.

The target of series [7] is T6, hD3 receptor (Homo sapiens, UniProt P35462).
T6 construct: purchased BioSignal Packard Inc., Montreal, Canada
The series is described as follows: Dopamine receptor family binding: D3 ([3H]spiperone). To be noted: [3H]spiperone 1 nM; read-out: Binding affinity, IC50 (nM), D3.

Series [8] addresses T7, hD4.2 receptor (Homo sapiens, UniProt P21917, DEL265-296).
T7 construct: purchased BioSignal Packard Inc., Montreal, Canada
T7 sequence (P21917 with tags, fused parts or gaps DEL265-296): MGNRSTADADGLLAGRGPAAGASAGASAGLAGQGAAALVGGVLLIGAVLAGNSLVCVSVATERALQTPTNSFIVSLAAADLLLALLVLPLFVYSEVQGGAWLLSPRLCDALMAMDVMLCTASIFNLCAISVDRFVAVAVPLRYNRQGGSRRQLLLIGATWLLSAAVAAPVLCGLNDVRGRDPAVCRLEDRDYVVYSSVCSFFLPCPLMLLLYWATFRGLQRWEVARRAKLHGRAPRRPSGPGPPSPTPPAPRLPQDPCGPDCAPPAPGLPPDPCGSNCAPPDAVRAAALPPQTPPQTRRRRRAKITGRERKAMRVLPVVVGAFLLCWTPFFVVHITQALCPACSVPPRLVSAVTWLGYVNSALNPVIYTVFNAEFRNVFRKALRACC
As to the kind of experiment: Dopamine receptor family binding: D4 ([3H]YM-09151-2). To be noted: [3H]YM-09151-2 0.06 nM; read-out: Binding affinity, IC50 (nM), D4. The procedure:
as §1, §2

Series [9] concerns the target Human serotonin 5-HT6 receptor (Homo sapiens, UniProt P50406). As to the kind of experiment: [3H]LSD binding assay on cloned 5-HT6 receptor. To be noted: IC50 (nM).
Setting [10] is: Binding affinity, 5-HT6, Table 4.
The mark [11] stands for this setting: binding affinity to the 5-HT6 receptor, Table 2, 1.87 nM [3H]LSD, cloned human receptor membranes from Sf21 cells, 37° C. 60 min.

Molecules are shown by their SMILES. Bounds are passed on as bounds.

T2 sequence (P28223 whole entry): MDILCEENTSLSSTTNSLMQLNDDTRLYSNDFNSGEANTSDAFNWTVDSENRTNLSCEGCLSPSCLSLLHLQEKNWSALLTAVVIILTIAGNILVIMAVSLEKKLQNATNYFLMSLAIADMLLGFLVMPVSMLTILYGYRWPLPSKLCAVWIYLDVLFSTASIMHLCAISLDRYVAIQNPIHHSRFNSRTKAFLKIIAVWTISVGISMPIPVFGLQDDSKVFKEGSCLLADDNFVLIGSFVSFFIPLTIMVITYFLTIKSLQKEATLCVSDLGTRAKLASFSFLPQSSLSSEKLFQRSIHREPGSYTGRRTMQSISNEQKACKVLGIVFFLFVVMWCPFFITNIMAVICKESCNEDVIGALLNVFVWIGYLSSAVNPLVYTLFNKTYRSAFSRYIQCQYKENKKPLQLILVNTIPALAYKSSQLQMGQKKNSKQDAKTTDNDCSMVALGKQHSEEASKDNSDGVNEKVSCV
Sequence of Human serotonin 5-HT6 receptor (P50406 whole entry): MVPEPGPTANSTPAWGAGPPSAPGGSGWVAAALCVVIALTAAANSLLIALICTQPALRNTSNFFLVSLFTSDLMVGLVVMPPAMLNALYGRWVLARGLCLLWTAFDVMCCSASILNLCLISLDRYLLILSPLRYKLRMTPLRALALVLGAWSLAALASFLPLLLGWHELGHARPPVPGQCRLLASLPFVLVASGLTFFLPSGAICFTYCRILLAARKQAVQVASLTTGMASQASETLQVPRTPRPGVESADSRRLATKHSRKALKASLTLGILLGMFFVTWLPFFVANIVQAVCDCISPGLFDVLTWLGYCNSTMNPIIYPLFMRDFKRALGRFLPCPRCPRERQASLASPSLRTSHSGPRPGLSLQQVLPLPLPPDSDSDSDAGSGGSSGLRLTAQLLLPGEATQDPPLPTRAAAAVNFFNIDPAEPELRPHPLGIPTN
T6 sequence (P35462 whole entry): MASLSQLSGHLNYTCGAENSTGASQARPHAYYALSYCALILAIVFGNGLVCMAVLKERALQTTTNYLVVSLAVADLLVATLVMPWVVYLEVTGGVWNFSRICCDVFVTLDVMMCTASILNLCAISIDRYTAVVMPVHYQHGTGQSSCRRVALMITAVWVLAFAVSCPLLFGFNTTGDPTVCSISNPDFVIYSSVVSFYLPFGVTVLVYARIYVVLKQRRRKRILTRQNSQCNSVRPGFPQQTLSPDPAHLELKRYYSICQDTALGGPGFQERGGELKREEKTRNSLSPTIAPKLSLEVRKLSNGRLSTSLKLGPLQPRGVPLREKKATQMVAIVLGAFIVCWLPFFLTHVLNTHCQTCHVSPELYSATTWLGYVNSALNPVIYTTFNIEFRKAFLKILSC
T5 sequence (P14416 whole entry): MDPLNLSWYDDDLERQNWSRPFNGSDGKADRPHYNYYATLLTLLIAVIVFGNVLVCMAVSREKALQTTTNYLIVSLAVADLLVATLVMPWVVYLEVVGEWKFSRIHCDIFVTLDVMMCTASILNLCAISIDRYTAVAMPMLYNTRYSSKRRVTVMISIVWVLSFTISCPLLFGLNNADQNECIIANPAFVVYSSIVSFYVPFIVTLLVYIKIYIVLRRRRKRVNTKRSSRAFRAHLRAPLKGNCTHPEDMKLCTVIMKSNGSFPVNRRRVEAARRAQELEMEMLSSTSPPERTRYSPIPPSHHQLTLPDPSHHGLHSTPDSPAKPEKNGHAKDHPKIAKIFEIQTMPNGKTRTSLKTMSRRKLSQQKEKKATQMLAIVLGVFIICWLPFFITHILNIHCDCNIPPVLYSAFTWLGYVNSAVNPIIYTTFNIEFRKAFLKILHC
T4 sequence (P34969 whole entry): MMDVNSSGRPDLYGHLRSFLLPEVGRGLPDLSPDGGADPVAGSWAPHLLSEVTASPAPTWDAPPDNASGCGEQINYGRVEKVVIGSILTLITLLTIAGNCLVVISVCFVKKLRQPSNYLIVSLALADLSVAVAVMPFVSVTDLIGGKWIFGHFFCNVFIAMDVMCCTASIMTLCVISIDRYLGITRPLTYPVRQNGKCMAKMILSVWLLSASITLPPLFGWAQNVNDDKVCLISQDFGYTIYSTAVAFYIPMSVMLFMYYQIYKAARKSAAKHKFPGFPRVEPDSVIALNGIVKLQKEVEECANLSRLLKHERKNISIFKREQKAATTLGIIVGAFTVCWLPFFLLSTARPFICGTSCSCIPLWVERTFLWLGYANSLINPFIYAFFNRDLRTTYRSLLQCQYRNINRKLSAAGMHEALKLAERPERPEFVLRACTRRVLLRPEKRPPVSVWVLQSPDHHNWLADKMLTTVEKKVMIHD
Sequence of D1 (P21728 whole entry): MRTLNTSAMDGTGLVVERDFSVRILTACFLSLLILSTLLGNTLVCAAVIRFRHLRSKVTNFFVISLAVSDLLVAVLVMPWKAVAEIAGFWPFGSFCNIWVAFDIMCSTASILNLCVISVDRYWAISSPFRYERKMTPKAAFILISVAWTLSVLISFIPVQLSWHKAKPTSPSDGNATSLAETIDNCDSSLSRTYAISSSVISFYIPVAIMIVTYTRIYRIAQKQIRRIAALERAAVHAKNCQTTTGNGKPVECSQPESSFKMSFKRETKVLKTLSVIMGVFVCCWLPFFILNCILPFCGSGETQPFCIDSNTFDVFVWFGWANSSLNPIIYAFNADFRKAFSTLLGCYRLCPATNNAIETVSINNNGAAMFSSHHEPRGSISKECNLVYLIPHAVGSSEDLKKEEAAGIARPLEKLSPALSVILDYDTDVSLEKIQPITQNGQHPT

On to `COc1ccc(CN2C(=O)N(Cc3ccccc3)c3cc(Cl)cc(N4CCN(C)CC4)c3S2(=O)=O)cc1` [Example 18, 4-Benzyl-6-chloro-2-(4-methoxy-benzyl)-8-(4-methyl-piperazin-1-yl)-1,1-dioxo-1,4-dihydro-2H-1λ^6-benzo[1,2,4]thiadiazin-3-one], for which the IC50 is 3420 nM in [1]; 563 nM in [2]; 990 nM in series [3]; above 10000 nM in [4]; above 10000 nM in [5]; 6580 nM in series [6]. Moreover, the IC50 is 1220 nM in series [7], above 10000 nM in series [8], 3.6 nM in series [9] (setting [10]) and 3.6 nM in series [9] (setting [11]).
For the compound `C[C@H](c1ccccc1)N1C(=O)N(Cc2ccccc2)c2cc(Cl)cc(N3CCN(C)CC3)c2S1(=O)=O` [Example 25, 4-Benzyl-6-chloro-8-(4-methyl-piperazin-1-yl)-1,1-dioxo-2-[(R)-1-phenyl-ethyl]-1,4-dihydro-2H-1λ^6-benzo[1,2,4]thiadiazin-3-one], the IC50 is above 10000 nM in series [1]; 350 nM in series [2]; 691 nM in series [3]; 8560 nM in series [4]; 963 nM in series [5]; 1920 nM in series [6]. The IC50 was 265 nM in series [7], above 10000 nM in series [8], 1.1 nM in [9] (setting [10]) and 1.1 nM in [9] (setting [11]).
For `C[C@@H](c1ccccc1)N1C(=O)N(Cc2ccccc2)c2cc(Cl)cc(N3CCN(C)CC3)c2S1(=O)=O` [Example 26, 4-Benzyl-6-chloro-8-(4-methyl-piperazin-1-yl)-1,1-dioxo-2-[(S)-1-phenyl-ethyl]-1,4-dihydro-2H-1λ^6-benzo[1,2,4]thiadiazin-3-one], the IC50 in series [1] was 589 nM; in series [2], 145 nM; in [3], 183 nM; in series [4], 8250 nM; in series [5], 1760 nM; in [6], 6580 nM. Besides, the IC50 in series [7] was 715 nM; in series [8], above 10000 nM; in series [9] (setting [10]), 2.4 nM; in series [9] (setting [11]) it was 2.4 nM.
As for `CN1CCN(c2cc(Cl)cc3c2S(=O)(=O)N(c2ccccc2)C(=O)N3Cc2ccccc2)CC1` [Example 27, 4-Benzyl-6-chloro-8-(4-methyl-piperazin-1-yl)-1,1-dioxo-2-phenyl-1,4-dihydro-2H-1λ^6-benzo[1,2,4]thiadiazin-3-one], the IC50 in series [1] is 2080 nM; in [2], 4310 nM; in series [3] it was 2580 nM; in [4] it was above 10000 nM; in [5] it was 2690 nM; in series [6], above 10000 nM. Also, the IC50 in series [7] was 5950 nM; in series [8], above 10000 nM; in series [9] (setting [10]) it was 3.8 nM; in series [9] (setting [11]), 3.8 nM.
`CCCN1C(=O)N(Cc2ccccc2)c2cc(Cl)cc(N3CCN(C)CC3)c2S1(=O)=O` [Example 34, 4-Benzyl-6-chloro-8-(4-methyl-piperazin-1-yl)-2-propyl-1,1-dioxo-1,4-dihydro-2H-1λ^6-benzo[1,2,4]thiadiazin-3-one] showed a melting point of 91 to 93 °C. In addition, the IC50 in [1] was found to be 2390 nM. Also, in series [2], the IC50 came to 436 nM. Moreover, in series [3], the IC50 was 203 nM. Further, the IC50 in series [4] was above 10000 nM. Further, the IC50 in series [6] is above 10000 nM. Further, the IC50 in [7] was 1860 nM. Further, the IC50 in [8] was above 10000 nM. Besides, the IC50 in [9] (setting [10]) came to 0.4 nM. In series [9] (setting [11]), this compound returned an IC50 of 0.4 nM.
`Cc1cc(C)cc(CCCN2C(=O)N(Cc3ccccc3)c3cc(Cl)cc(N4CCN(C)CC4)c3S2(=O)=O)c1` [Example 38, 4-Benzyl-6-chloro-2-[3-(3,5-dimethyl-phenyl)-propyl]-8-(4-methyl-piperazin-1-yl)-1,1-dioxo-1,4-dihydro-2H-1λ^6-benzo[1,2,4]thiadiazin-3-one]: the IC50 in series [1] is 3420 nM; in series [2], 359 nM; in series [3], 508 nM; in [4] it was 9140 nM; in series [5] it was 918 nM; in [6], above 10000 nM. Moreover, the IC50 in [7] is 336 nM; in series [8] it was above 10000 nM; in [9] (setting [10]), 0.6 nM; in [9] (setting [11]), 0.6 nM.
In the case of `CCCCCCCCN1C(=O)N(Cc2ccccc2)c2cc(Cl)cc(N3CCN(C)CC3)c2S1(=O)=O` [Example 39, 4-Benzyl-6-chloro-8-(4-methyl-piperazin-1-yl)-2-octyl-1,1-dioxo-1,4-dihydro-2H-1λ^6-benzo[1,2,4]thiadiazin-3-one], the melting point fell in the range of 88 to 91 °C. For the same compound, the IC50 in [1] was found to be 894 nM. Moreover, in series [2], the IC50 was found to be 1320 nM. Moreover, in [3], the IC50 worked out at 1050 nM. Besides, the IC50 in series [4] is 3170 nM. Further, in series [6], the half-inhibitory concentration (IC50) is above 10000 nM. Besides, the IC50 in series [7] worked out at 130 nM. Also, in series [8], the IC50 was above 10000 nM. In addition, in series [9] (setting [10]), the IC50 is 1.8 nM. The compound also yielded an IC50 in series [9] (setting [11]) of 1.8 nM.
As for `CN1CCN(c2cc(Cl)cc3c2S(=O)(=O)N(Cc2cccc4ccccc24)C(=O)N3Cc2ccccc2)CC1` [Example 41, 4-Benzyl-6-chloro-8-(4-methyl-piperazin-1-yl)-2-naphthalen-1-ylmethyl-1,1-dioxo-1,4-dihydro-2H-1λ^6-benzo[1,2,4]thiadiazin-3-one], the melting point lay within 114 to 115 °C. For the same compound, the IC50 in series [1] is above 10000 nM. Moreover, the IC50 in series [2] was 365 nM. Further, in [3], the IC50 came out at 257 nM. Besides, the IC50 in series [4] is above 10000 nM. Besides, the IC50 in series [6] is above 10000 nM. In addition, in series [7], the IC50 stood at 420 nM. The IC50 in series [8] is above 10000 nM. The same compound yielded an IC50 in series [9] (setting [10]) of 0.8 nM. In addition, in [9] (setting [11]), the IC50 came out at 0.8 nM.
